In ChEMBL document CHEMBL1201862, “PubChem BioAssay data set” (2004):
The source made the active and inactive calls.

Tests used:
[1] = molecular target: Glucose-6-phosphate 1-dehydrogenase (Homo sapiens, UniProt P11413); assay: human G6PD enzyme inhibitors, dose response, selectivity assay for P. falciparum G6PD inhibitor project, biochemical, fluorescence (AID 504792); format: functional
[2] = HeLa cell cytotoxicity, dose response, cytotoxicity control for MgcRacGAP inhibitor project (AID 624300); format: functional
[3] = molecular target: T1, Rac GTPase-activating protein 1 (Homo sapiens, UniProt Q9H0H5); assay: MgcRacGAP GTPase-activating activity inhibitors, confirmation, biochemical, ADP Hunter fluorescence, primary and confirmatory (AID 624330); format: functional
T1 sequence (Q9H0H5 whole entry): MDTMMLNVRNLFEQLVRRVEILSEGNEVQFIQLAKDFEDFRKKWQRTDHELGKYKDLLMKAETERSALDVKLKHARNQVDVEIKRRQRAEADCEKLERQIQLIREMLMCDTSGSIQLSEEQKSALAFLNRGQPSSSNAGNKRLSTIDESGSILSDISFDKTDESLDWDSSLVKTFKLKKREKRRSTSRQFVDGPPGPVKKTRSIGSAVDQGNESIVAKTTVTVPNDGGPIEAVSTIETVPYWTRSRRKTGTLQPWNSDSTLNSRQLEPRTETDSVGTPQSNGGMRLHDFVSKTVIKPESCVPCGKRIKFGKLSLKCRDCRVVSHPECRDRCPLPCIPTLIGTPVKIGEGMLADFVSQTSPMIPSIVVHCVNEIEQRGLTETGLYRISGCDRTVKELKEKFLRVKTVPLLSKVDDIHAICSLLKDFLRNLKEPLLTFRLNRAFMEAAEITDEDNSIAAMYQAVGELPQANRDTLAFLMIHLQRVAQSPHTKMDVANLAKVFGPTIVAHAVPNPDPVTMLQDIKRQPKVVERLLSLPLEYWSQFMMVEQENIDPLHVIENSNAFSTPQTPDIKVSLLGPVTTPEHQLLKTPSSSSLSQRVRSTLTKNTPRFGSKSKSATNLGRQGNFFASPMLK

[4] = Luminescence Cell-Based Dose Retest to Confirm Inhibitors of Cancer Stem Cells. [Related pubchem assays (depositor defined):AID2717, AID2721]; format: functional; conditions: Homo sapiens
[5] = molecular target: Heat shock protein HSP 90-alpha (Homo sapiens, UniProt P07900); format: functional, organism-based
Insulin-degrading enzyme [6] = molecular target: T2, Insulin-degrading enzyme (Homo sapiens, UniProt P14735); assay: activators of recombinant IDE enzyme, dose response, counter-screen for IDE activator project, biochemical, fluorescence polarization (AID 588681)
T2 sequence (P14735 whole entry): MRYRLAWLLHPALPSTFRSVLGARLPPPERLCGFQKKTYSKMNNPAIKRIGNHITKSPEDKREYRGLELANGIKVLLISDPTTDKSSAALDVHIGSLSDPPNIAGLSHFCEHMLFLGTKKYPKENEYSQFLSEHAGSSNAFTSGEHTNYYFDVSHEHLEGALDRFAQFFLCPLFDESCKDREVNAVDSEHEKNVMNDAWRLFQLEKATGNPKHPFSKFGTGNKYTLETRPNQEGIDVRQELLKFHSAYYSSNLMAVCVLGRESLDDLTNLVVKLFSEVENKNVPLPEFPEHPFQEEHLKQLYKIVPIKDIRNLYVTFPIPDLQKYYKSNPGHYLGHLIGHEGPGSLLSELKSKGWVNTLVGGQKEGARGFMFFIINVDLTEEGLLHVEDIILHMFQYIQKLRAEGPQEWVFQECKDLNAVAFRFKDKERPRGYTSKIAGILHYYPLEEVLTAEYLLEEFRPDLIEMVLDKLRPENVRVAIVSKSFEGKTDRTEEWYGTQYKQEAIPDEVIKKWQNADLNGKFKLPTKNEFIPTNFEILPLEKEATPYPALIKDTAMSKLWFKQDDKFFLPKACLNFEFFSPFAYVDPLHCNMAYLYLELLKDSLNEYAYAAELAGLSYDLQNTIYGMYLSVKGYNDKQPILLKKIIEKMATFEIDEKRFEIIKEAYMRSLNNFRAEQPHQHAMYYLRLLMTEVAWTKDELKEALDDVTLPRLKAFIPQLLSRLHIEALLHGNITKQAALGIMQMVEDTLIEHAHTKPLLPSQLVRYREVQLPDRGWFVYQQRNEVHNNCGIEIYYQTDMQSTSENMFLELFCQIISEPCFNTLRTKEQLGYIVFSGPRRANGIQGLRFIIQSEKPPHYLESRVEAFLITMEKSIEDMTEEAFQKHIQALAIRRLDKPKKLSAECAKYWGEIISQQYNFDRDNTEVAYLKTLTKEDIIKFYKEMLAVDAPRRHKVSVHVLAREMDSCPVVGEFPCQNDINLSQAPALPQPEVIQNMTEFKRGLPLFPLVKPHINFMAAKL

Insulin-degrading enzyme [7] = molecular target: T2, Insulin-degrading enzyme; assay: activators of endogenous IDE in HEK cells, dose response, cell-based, fluorescence polarization (AID 588439); format: functional
HEK293 [8] = assay: HEK cell cytotoxicity by LDH release, dose response, cytotoxicity control for IDE activator project, fluorescence, HEK cells (AID 588440); format: functional, cell-based; conditions: Homo sapiens;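 note: cytotoxicity by LDH release measuring loss of membrane integrity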
HEK293 [9] = assay: optical interference in Abeta FP readout, dose response, artefact control for IDE activator project, biochemical, fluorescence polarization (AID 588442); format: functional, cell-based; conditions: Homo sapiens
[10] = ADAM10 inhibitors, peptide cleavage, dose response, biochemical, QFRET (AID 743254);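 note: ADAM10 enzyme with the DM2 quenched FRET peptide as substrate; EDANS fluorescence gain as the protease cuts the substrate; inhibitor potency against ADAM10 proteolytic activity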
[11] = molecular target: Disintegrin and metalloproteinase domain-containing protein 17 (Homo sapiens, UniProt P78536); assay: ADAM17 protease inhibitors, dose response, counter-screen for ADAM10 exosite inhibitor project, biochemical, quenched FRET substrate (AID 743253)
[12] = molecular target: T3, Probable nicotinate-nucleotide adenylyltransferase (Staphylococcus aureus (strain N315), UniProt P65502); format: functional, Staphylococcus aureus subsp. aureus N315;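 for IC50 Mean: confirmatory dose-response retesting of NadD inhibitor hits first found in an ultra-high-throughput screen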
[13] = molecular target: T3, Probable nicotinate-nucleotide adenylyltransferase; format: functional, Staphylococcus aureus subsp. aureus N315; conditions: read-out: IC50_Mean
[14] = molecular target: T4, Long-chain-fatty-acid--AMP ligase FadD28 (Mycobacterium tuberculosis, UniProt P9WQ59); assay: Fluorescence polarization aasay to screen for inhibitors that compete for the binding of FadD28 to a bisubstrate Measured in Biochemical System Using Plate Reader - 2147-01_Inhibitor_Dose_CherryPick_Activity.; format: functional, Mycobacterium tuberculosis H37Rv
T4 sequence (P9WQ59 whole entry): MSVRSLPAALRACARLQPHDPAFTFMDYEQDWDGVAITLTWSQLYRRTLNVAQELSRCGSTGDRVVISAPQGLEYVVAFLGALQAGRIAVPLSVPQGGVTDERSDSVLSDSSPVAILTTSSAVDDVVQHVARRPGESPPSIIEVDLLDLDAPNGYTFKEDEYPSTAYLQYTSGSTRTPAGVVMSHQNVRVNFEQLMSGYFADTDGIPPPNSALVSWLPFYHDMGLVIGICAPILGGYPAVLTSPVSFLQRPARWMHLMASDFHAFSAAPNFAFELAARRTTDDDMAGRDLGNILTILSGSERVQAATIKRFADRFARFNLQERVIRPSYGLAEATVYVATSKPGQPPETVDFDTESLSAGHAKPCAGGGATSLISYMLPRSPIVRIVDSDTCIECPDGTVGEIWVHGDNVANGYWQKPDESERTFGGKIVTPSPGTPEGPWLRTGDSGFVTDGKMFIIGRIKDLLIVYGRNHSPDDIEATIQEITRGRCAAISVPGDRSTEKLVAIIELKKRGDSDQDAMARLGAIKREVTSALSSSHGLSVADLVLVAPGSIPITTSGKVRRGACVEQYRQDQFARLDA

Galanin receptor type 3 = molecular target: T5, Galanin receptor type 3 (Homo sapiens, UniProt O60755); assay: Fluorescence-based cell-based primary high throughput dose response assay to identify antagonists of the Galanin Receptor 3 (GalR3).; format: functional
T5 sequence (O60755 whole entry): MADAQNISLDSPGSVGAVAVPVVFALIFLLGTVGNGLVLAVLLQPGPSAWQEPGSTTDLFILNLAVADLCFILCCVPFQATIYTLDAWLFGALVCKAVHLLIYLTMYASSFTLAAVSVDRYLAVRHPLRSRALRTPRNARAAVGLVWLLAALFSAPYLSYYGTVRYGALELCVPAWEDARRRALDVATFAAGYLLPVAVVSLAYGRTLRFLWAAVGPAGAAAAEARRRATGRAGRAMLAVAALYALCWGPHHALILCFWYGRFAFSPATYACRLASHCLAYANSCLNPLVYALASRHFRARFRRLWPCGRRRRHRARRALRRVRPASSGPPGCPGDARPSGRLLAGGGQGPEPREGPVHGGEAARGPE

cells = format: functional, cell-based; conditions: HEK-CNG

T3 sequence (P65502 whole entry): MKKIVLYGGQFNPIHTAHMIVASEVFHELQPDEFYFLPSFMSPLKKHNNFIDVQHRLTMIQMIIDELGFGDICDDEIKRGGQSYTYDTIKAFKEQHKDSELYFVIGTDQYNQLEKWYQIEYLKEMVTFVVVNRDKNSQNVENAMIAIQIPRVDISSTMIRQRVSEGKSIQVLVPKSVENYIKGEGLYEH
Chain of Disintegrin and metalloproteinase domain-containing protein 17 (P78536 whole entry, the tested form may be a part): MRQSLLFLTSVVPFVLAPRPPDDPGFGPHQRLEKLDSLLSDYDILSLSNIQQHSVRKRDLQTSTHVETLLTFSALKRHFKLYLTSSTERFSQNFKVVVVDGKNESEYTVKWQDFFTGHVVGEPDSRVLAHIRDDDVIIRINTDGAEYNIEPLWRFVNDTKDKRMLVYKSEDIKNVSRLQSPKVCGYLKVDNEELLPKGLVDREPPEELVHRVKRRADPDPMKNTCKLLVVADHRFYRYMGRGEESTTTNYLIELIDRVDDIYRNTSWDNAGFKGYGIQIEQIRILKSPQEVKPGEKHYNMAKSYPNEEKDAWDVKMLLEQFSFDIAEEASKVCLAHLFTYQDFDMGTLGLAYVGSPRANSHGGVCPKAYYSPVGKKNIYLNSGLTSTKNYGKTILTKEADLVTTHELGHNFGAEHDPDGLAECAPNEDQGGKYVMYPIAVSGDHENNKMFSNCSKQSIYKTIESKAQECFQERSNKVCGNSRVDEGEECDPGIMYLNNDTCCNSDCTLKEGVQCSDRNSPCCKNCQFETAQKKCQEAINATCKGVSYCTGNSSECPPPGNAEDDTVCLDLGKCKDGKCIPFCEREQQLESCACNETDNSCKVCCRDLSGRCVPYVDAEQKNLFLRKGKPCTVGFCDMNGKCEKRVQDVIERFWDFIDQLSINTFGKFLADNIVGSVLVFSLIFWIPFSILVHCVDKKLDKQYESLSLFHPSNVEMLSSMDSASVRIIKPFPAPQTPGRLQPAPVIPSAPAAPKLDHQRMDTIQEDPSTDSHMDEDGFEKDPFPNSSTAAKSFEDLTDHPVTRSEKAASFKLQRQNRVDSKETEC
Chain of Glucose-6-phosphate 1-dehydrogenase (P11413 whole entry): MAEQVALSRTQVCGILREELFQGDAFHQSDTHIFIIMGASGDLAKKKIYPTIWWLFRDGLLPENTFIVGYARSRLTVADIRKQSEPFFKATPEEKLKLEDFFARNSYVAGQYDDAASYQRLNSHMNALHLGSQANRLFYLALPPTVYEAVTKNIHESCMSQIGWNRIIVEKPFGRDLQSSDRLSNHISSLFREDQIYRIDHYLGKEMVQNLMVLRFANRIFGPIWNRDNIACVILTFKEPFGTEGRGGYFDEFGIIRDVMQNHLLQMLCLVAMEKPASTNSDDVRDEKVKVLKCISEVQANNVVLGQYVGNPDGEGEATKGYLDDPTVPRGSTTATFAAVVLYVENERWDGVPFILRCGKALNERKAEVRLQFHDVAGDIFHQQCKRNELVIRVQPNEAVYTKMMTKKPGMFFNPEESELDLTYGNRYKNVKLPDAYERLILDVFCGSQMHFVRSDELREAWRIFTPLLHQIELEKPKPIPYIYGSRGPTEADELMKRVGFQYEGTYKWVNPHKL

In the case of COc1cccc(CNc2ccc3[nH]c(O)nc3c2)c1OCc1ccccc1Cl, the IC50 [1] is reported as > 80 µM (inactive), the CC50 [2] is reported as 100 µM (active) and the IC50 [3] is reported as 69 µM (active).

For CC1(C)C=Cc2c(ccc3c2OC[C@H](c2ccc(O)cc2O)C3)O1, the AC50 [4] was 3.16 µM (active), the AC50 [5] was 7.45 µM (active) and the EC50 (Insulin-degrading enzyme [6]) was > 54.7 µM (inactive). The EC50 (Insulin-degrading enzyme [7]) was > 54.7 µM (inactive), the IC50 (HEK293 [8]) was 22.1 µM (inactive) and the EC50 (HEK293 [9]) was > 54.7 µM (inactive). The IC50 [10] was 19.5 µM (inactive) and the IC50 [11] was > 69.5 µM (inactive).

With Oc1ccc(C[C@H]2CNC(=S)N2CC2CCCN2C[C@H](Cc2ccc(O)cc2)N2C[C@H](Cc3ccccc3)N(CC3CCCCC3)C2=S)cc1 (stereo not given in full) the IC50 [12] was 16.3 µM (active) and the IC50 [13] was 22.1 µM (active).

For O=C(O)c1ccc(N/N=C/c2cc(Br)cs2)cc1, the AC50 [14] was 32 µM (inactive).

For O=[N+]([O-])c1[nH]c2nc(O)nc-2cc1Cl, the IC50 (Galanin receptor type 3) was 16.7 µM (inactive) and the EC50 (cells) was > 29.9 µM (inactive).

With CCOC(=O)/C=C/CN(C(=O)OC(C)(C)C)S(=O)(=O)N1CC=CC1 the EC50 (Insulin-degrading enzyme [6]) was > 54.7 µM (inactive), the EC50 (Insulin-degrading enzyme [7]) was > 54.7 µM (inactive) and the IC50 (HEK293 [8]) was > 89.2 µM (inactive). For the same compound, the EC50 (HEK293 [9]) was > 55.9 µM (inactive).
